Results on five compounds are retold here after publication PMC5674125, “Towards eco-friendly crop protection: natural deep eutectic solvents and defensive secondary metabolites” (Phytochemistry Reviews, 2017).

For one data set, the system named is Agelastica alni. Further details: method as in Ikonen et al. (2002). Particulars: 2.48% by weight, dual choice bioassay; ref Ikonen et al. (2002); cited from earlier work.
Data set [1] concerns Spodoptera litura. Particulars: 0.7–0.8 µg/ml; ref Mallikarjuna et al. (2004); cited from earlier work.
Another data set has as its system Trichoplusia ni. Further details: method as in Beninger et al. (2004). Particulars: 100 ppm (2.8 mM) and 1000 ppm (28 mM); ref Beninger et al. (2004); cited from earlier work.
For data set [2], the system named is Frankliniella occidentalis. More on the design: method as in Leiss et al. (2009a). The following applies: 5% (5 mg/ml); ref Leiss et al. (2009a); cited from earlier work.
The subject of data set [3] is Helicoverpa zea. More on the design: method as in Summers and Felton (1994). The following applies: 4 mM, ref Summers and Felton (1994), cited from earlier work.
The test system of another data set is Plagiodera versicolora. More on the design: method as in Jassbi (2003). The following applies: ref Jassbi (2003); cited from earlier work.
For a further data set, the system named is Dalbulus maidis. More on the design: method as in Dowd and Vega (1996). Particulars: adults, 400 ppm, in vitro bioassay; ref Dowd and Vega (1996); cited from earlier work.
For data set [4], the system named is Lymantria dispar. Further details: method as in Beninger et al. (2004). The following applies: 100 ppm (2.8 mM) and 1000 ppm (28 mM); ref Beninger et al. (2004); cited from earlier work.
In another data set the test system is Mamestra configurata. Further details: method as in Onyilagha et al. (2004). Particulars: applied at concentration > endogenous levels, 0.05–0.45 µmol per leaf disk, choice feeding assay; ref Onyilagha et al. (2004); cited from earlier work.
Data set [5] has as its system Spodoptera frugiperda. More on the design: method as in Diaz Napal and Palacios (2015). The following applies: 100 µg/cm^2; ref Diaz Napal and Palacios (2015); cited from earlier work.
The subject of data set [6] is Helicoverpa armigera. Further details: method as in Li et al. (2016). The following applies: ref Li et al. (2016), cited from earlier work.
Data set [7] has as its system Spodoptera frugiperda. More on the design: method as in Gallo et al. (2006). Particulars: 0.1 mg/g; ref Gallo et al. (2006); cited from earlier work.
The subject of the next data set is Acyrthosiphon pisum. Further details: method as in Goławska et al. (2014). The following applies: ref Goławska et al. (2014), cited from earlier work.
The next data set relates to Bactrocera Cucurbitae. More on the design: method as in Sharma and Sohal (2013). The following applies: 125 ppm; ref Sharma and Sohal (2013); cited from earlier work.
For a further data set, the system named is Aphis fabae. More on the design: method as in Lattanzio et al. (2000). The following applies: 0.1 M; ref Lattanzio et al. (2000); cited from earlier work.
Data set [8] concerns Lymantria dispar. More on the design: method as in Beninger and Abou-Zaid (1997). The following applies: 0.05%, day 15; ref Beninger and Abou-Zaid (1997); cited from earlier work.
The conditions of data set [9]: cited from earlier work; for Solubility in NADES compared to aqueous solubility: ref Dai et al. (2013, 2015).
Data set [10] has as its system Helicoverpa armigera. Further details: method as in Liu et al. (2015). Particulars: 3 and 10 mg/g; ref Liu et al. (2015); cited from earlier work.
The nature of data set [11]: Solubility in natural deep eutectic solvents (saturated solutions, UV-VIS). Format: physicochemical. The following applies: for Solubility: 24 h at 50 °C, mean ± SD, n = 3. How it is done: As an extension of these studies, we have investigated the solubility of six insecticidal metabolites in a variety of NADES. The solvent selection framework consisted of the following steps: • Preliminary solvent screening: a pre-selected set of 20 NADES was used as a starting point to identify and rank potential NADES candidates (Table 3). Selection constraints were imposed on important properties such as viscosity and stability.
• Secondary screening: solubility tests were performed to determine the best solvent for each of the metabolites. Saturated solutions, generated by adding an excess amount of each compound to different NADES, were kept under constant stirring (1100 rpm) for 24 h at 50 °C. The 20 candidates were ranked in decreasing order of solvent power. • Solubility verification: For the verification of solubilities, samples were centrifuged for 5 min at 2000 rpm and subsequently diluted suitably with methanol for spectrophotometric analysis (UV-1800 UV–VIS spectrophotometer, Shimadzu Europe GmbH, Duisburg, Germany).

For data set [12], the system named is Helicoverpa zea. More on the design: method as in Simmonds (2003). Particulars: 10^−3 M; ref Simmonds (2003); cited from earlier work.
In a further data set the test system is Anticarsia gemmatalis. Further details: method as in Salvador et al. (2010). The following applies: 0.65% (mg/ml); ref Salvador et al. (2010); cited from earlier work.
The test system of a further data set is Phyllotreta cruciferae. Further details: method as in Onyilagha et al. (2012). Particulars: 1 month old flea beetle, binary feeding bioassay; ref Onyilagha et al. (2012); cited from earlier work.
Data set [13] relates to Spodoptera litura. Further details: method as in Jadhav et al. (2012). Particulars: 1 µg/ml; ref Jadhav et al. (2012); cited from earlier work.
In a further data set the test system is Acanthoscelides obtectus. Further details: method as in Regnault-Roger et al. (2004). The following applies: adults, in vitro bioassay; ref Regnault-Roger et al. (2004); cited from earlier work.
In data set [14] the test system is Helicoverpa armigera. Further details: method as in Simmonds (2003). Particulars: 10^−3 M; ref Simmonds (2003); cited from earlier work.
Data set [15] concerns Helicoverpa armigera. More on the design: method as in Jadhav et al. (2012). Particulars: 1 µg/ml; ref Jadhav et al. (2012); cited from earlier work.
Another data set has as its system Pieris rassicae. More on the design: method as in Onkokesung et al. (2014). Particulars: applied exogenously at 100 µM; ref Onkokesung et al. (2014); cited from earlier work.

A value given as a limit tells only on which side of the number the result lay.

In the case of `O=C(/C=C/c1ccc(O)c(O)c1)O[C@@H]1C[C@](O)(C(=O)O)C[C@@H](O)[C@H]1O` [Chlorogenic acid], in the data set on Agelastica alni, the Feeding deterrence entry is on record as “Feeding deterrent at concentration of 2.48% by weight (dual choice bioassay)”. Besides, the Development result in the data set on Spodoptera litura [1] is listed as “Developmental retardation”. In addition, the Larval mortality in the data set with Spodoptera litura [1] was greater than 60%. Besides, the “Larval growth and development” value with Trichoplusia ni was “Reduced larval growth and development at 100 ppm (2.8 mM) and 1000 ppm (28 mM)”; in the data set with Lymantria dispar [4] it was “Reduced larval growth and development at 100 ppm (2.8 mM) and 1000 ppm (28 mM)”. Besides, in data set [2], the “Relative growth rate and survival of first instar larva” value was “Reduced relative growth rate and survival of first instar larva at 5% (5 mg/ml)”. The “Prooxidant effect on midgut proteins” value with Helicoverpa zea [3] (chronic exposure) is “oxidative stress in midgut proteins”. Also, the “Development rate, survivorship and pupal weight” value in the data set with Helicoverpa zea [3] was “Development rate and pupal weight are negatively influenced”. Further, in the data set on Plagiodera versicolora, the “Amount with antifeedant activity” value was “Antifeedant activity above 50 µg/disk”. The Antifeedant activity result in the data set on Dalbulus maidis was “Antifeedant activity in adults at 400 ppm (in vitro bioassay)”.
As for `O=c1c(O[C@@H]2O[C@H](CO)[C@@H](O)[C@H](O)[C@H]2O)c(-c2ccc(O)cc2)oc2cc(O[C@@H]3O[C@H](CO)[C@@H](O)[C@H](O)[C@H]3O)cc(O)c12` [Kaempferol-3,7-diglucoside], the Feeding deterrence result in the data set with Mamestra configurata is recorded as “Kaempferol-3,7-diglucoside acts as feeding deterrent when applied at concentration > endogenous levels; 0.05–0.45 µmol per leaf disk (choice feeding assay)”.
With `O=c1c(O)c(-c2ccc(O)c(O)c2)oc2cc(O)cc(O)c12` [Quercetin], in the data set with Spodoptera frugiperda [5], the Feeding deterrence result was “Feeding deterrent (57%) at 100 µg/cm^2”. The Reduction of pupation in the data set on Helicoverpa armigera [6] (8 mg/g) is 50%. Besides, the “Reduction of larval weight” value with Helicoverpa armigera [6] (16 mg/g) is reported as roughly 50%. The Mortality in the data set on Helicoverpa armigera [6] (32 mg/g) is listed as greater than 80%. Besides, the Larval mortality in the data set with Spodoptera frugiperda [7] is recorded as 78% Larval mortality at 0.1 mg/g. In addition, in the data set on Acyrthosiphon pisum (100 µg cm^−3), the “Probing and feeding deterrence” value is “Probing and feeding deterrent”. In addition, the “Mortality, development time, fecundity” value with Acyrthosiphon pisum (higher concentration than 100 µg cm^−3) was “mortality and development time are increased whereas fecundity is decreased”. Further, in the data set on Spodoptera litura [1], the Development result is on record as “Developmental retardation” and the Larval mortality is greater than 60%. In the data set on Bactrocera Cucurbitae, the “Food assimilation, larval and pupal weight” value is “Growth regulator and or deterrent: reduction in food assimilation as well as larval and pupal weight at 125 ppm”. In the data set on Aphis fabae, the Progeny deposition result is “Inhibitory activity on progeny deposition 0.1 M”. Also, the Larval weight reduction entry in the data set with Lymantria dispar [8] is on record as “Larval growth inhibitor. Larval weight reduced by 33% at 0.05% at day 15”. Besides, the “Solubility in NADES compared to aqueous solubility” value in data set [9] is “significantly increased”. The “Growth, pupation, adult emergence, survival” value with Helicoverpa armigera [10] is “Deleterious effects growth, pupation and adult emergence, and survivalat 3 and 10 mg/g”. For the same compound, in data set [11] (1,2-propanediol: choline chloride: water (1:1:1), water 7.71%), the Solubility came out at 44.34 ± 0.76 mg/g.
Take `C[C@@H]1O[C@@H](OC[C@H]2O[C@@H](Oc3c(-c4ccc(O)c(O)c4)oc4cc(O)cc(O)c4c3=O)[C@H](O)[C@@H](O)[C@@H]2O)[C@H](O)[C@H](O)[C@H]1O` [Rutin]: the Development result in the data set with Spodoptera litura [1] is given as “Developmental retardation”. Moreover, the Larval mortality with Spodoptera litura [1] is given as greater than 60%. Moreover, the Feeding deterrence result was “Feeding deterrent at 10^−3 M” in the data set with Helicoverpa zea [12], “Feeding deterrent of 1 month old flea beetle (binary feeding bioassay)” in the data set with Phyllotreta cruciferae and “Feeding deterrent at 10^−3 M” in the data set with Helicoverpa armigera [14]. In addition, the “Larval development, amount of food consumed, pupal weight” value with Anticarsia gemmatalis is “Larval development, amount of food consumed, and pupal weight were negatively influenced at 0.65% (mg/ml)”. Also, the Larval weight reduction entry with Lymantria dispar [8] is listed as “Larval growth inhibitor. Larval weight reduced by 45% at 0.05% at day 15”. Also, the “Larval development, pupal mortality, adult malformation” value in the data set on Spodoptera litura [13] was “Larval development arrested, increased pupal mortality and malformation of adults at 1 µg/ml”. For the same compound, in the data set with Acanthoscelides obtectus, the “Knockdown effect (mobility and mortality)” value is “Knockdown effect in bioassay: reduced mobility and increased mortality of adults”. Also, the “Solubility in NADES diluted with water” value in data set [9] (diluted with 5–10% of water, ref Dai et al. (2013)) is on record as “higher solubility”. Also, the “Solubility in NADES compared to aqueous solubility” value in [9] is “significantly increased”. In addition, in the data set with Helicoverpa armigera [15], the “Feeding and larval growth” value is “Cessation of feeding inhibits larval growth (1 µg/ml)”. The compound further gave a Solubility in [11] (1,2-propanediol: choline chloride: water (1:1:3), water 20.04%) of 18.46 ± 0.67 mg/g. Moreover, the “Solubility increase compared to water” value in data set [11] (PCH (1:1:3) versus water (Tables 2, 4)) is listed as “fivefold”.
In the case of `C[C@@H]1O[C@@H](Oc2cc(O)c3c(=O)c(O[C@@H]4O[C@@H](C)[C@H](O)[C@@H](O)[C@H]4O)c(-c4ccc(O)cc4)oc3c2)[C@H](O)[C@H](O)[C@H]1O` [kaempferol 3-O-rhamnoside 7-O-rhamnoside], the Growth entry with Pieris rassicae was “Growth negatively affected”.
